Our source for the Ki values is BindingDB's records for doi:10.1016/0922-4106(95)90037-3 (Universit&Eacute, 1995).

Values joined by “and” are separate entries in the source; they are usually repeats but may differ in a detail not shown here. Equal values may be shown once. Non-standard residues stand in square brackets, D forms with d. Residues, ends and D or L forms follow the SMILES beside them. ξ: configuration not given here. Ile(3ξ) = CCC(C)[C@H](N)C(=O)O

The test has as its target T1, Pituitary adenylate cyclase-activating polypeptide (Rattus norvegicus, UniProt P13589).
T1 sequence (P13589 whole entry): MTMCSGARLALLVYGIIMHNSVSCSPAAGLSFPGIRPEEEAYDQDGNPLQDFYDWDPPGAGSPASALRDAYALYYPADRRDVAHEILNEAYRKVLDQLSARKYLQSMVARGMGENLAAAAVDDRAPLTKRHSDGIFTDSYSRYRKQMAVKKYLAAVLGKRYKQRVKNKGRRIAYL
`CC[C@H](C)[C@H](NC(=O)CNC(=O)[C@H](CCC(=O)O)NC(=O)[C@H](CO)NC(=O)[C@@H](N)Cc1cnc[nH]1)C(=O)N[C@@H](Cc1ccccc1)C(=O)N[C@H](C(=O)N[C@@H](CC(=O)O)C(=O)N[C@@H](CO)C(=O)N[C@@H](Cc1ccc(O)cc1)C(=O)N[C@@H](CO)C(=O)N[C@@H](CCCNC(=N)N)C(=O)N[C@@H](Cc1ccc(O)cc1)C(=O)N[C@@H](CCCNC(=N)N)C(=O)N[C@@H](CCCCN)C(=O)N[C@@H](CCC(N)=O)C(=O)N[C@@H](CCSC)C(=O)N[C@@H](C)C(=O)N[C@H](C(=O)N[C@@H](CCCCN)C(=O)N[C@@H](CCCCN)C(=O)N[C@@H](Cc1ccc(O)cc1)C(=O)N[C@@H](CC(C)C)C(=O)N[C@@H](C)C(=O)N[C@@H](C)C(=O)N[C@H](C(=O)N[C@@H](CC(C)C)C(N)=O)C(C)C)C(C)C)[C@@H](C)O` [PACAP(1-27)] showed a Ki of 0.08 nM. As to `CSCC[C@H](NC(=O)[C@H](CCC(N)=O)NC(=O)[C@H](CCCCN)NC(=O)[C@H](CCCNC(=N)N)NC(=O)[C@H](Cc1ccc(O)cc1)NC(=O)[C@H](CCCNC(=N)N)NC(=O)[C@H](CO)NC(=O)[C@H](Cc1ccc(O)cc1)NC(=O)[C@H](CO)NC(=O)[C@H](CC(=O)O)NC(=O)[C@@H](NC(=O)[C@@H](N)Cc1ccccc1)[C@@H](C)O)C(=O)N[C@@H](C)C(=O)N[C@H](C(=O)N[C@@H](CCCCN)C(=O)N[C@@H](CCCCN)C(=O)N[C@@H](Cc1ccc(O)cc1)C(=O)N[C@@H](CC(C)C)C(=O)N[C@@H](C)C(=O)N[C@@H](C)C(=O)N[C@H](C(=O)N[C@@H](CC(C)C)C(=O)NCC(=O)N[C@@H](CCCCN)C(=O)N[C@@H](CCCNC(=N)N)C(=O)N[C@@H](Cc1ccc(O)cc1)C(=O)N[C@@H](CCCCN)C(=O)N[C@@H](CCC(N)=O)C(=O)N[C@@H](CCCNC(=N)N)C(=O)N[C@H](C(=O)N[C@@H](CCCCN)C(=O)N[C@@H](CC(N)=O)C(=O)N[C@@H](CCCCN)C(N)=O)C(C)C)C(C)C)C(C)C`, the Ki is 8 nM and 10 nM.

`CC[C@H](C)[C@H](NC(=O)CNC(=O)[C@H](CC(=O)O)NC(=O)[C@H](CO)NC(=O)[C@@H](N)Cc1cnc[nH]1)C(=O)N[C@@H](Cc1ccccc1)C(=O)N[C@H](C(=O)N[C@@H](CC(=O)O)C(=O)N[C@@H](CO)C(=O)N[C@@H](Cc1ccc(O)cc1)C(=O)N[C@@H](CO)C(=O)N[C@@H](CCCNC(=N)N)C(=O)N[C@@H](Cc1ccc(O)cc1)C(=O)N[C@@H](CCCNC(=N)N)C(=O)N[C@@H](CCCCN)C(=O)N[C@@H](CCC(N)=O)C(=O)N[C@@H](CCSC)C(=O)N[C@@H](C)C(=O)N[C@H](C(=O)N[C@@H](CCCCN)C(=O)N[C@@H](CCCCN)C(=O)N[C@@H](Cc1ccc(O)cc1)C(=O)N[C@@H](CC(C)C)C(=O)N[C@@H](C)C(=O)N[C@@H](C)C(=O)N[C@H](C(=O)N[C@@H](CC(C)C)C(=O)NCC(=O)N[C@@H](CCCCN)C(=O)N[C@@H](CCCNC(=N)N)C(=O)N[C@@H](Cc1ccc(O)cc1)C(=O)N[C@@H](CCCCN)C(=O)N[C@@H](CCC(N)=O)C(=O)N[C@@H](CCCNC(=N)N)C(=O)N[C@H](C(=O)N[C@@H](CCCCN)C(=O)N[C@@H](CC(N)=O)C(=O)N[C@@H](CCCCN)C(N)=O)C(C)C)C(C)C)C(C)C)[C@@H](C)O` [PACAP]: the Ki was determined as 0.1 nM.

For `CCC(C)[C@H](NC(=O)CNC(=O)[C@H](CC(=O)O)NC(=O)[C@@H](N)CO)C(=O)N[C@@H](Cc1ccccc1)C(=O)N[C@H](C(=O)N[C@@H](CC(=O)O)C(=O)N[C@@H](CO)C(=O)N[C@@H](Cc1ccc(O)cc1)C(=O)N[C@@H](CO)C(=O)N[C@@H](CCCN=C(N)N)C(=O)N[C@@H](Cc1ccc(O)cc1)C(=O)N[C@@H](CCCN=C(N)N)C(=O)N[C@@H](CCCCN)C(=O)N[C@@H](CCC(N)=O)C(=O)N[C@@H](CCSC)C(=O)N[C@@H](C)C(=O)N[C@H](C(=O)N[C@@H](CCCCN)C(=O)N[C@@H](CCCCN)C(=O)N[C@@H](Cc1ccc(O)cc1)C(=O)N[C@@H](CC(C)C)C(=O)N[C@@H](C)C(=O)N[C@@H](C)C(=O)N[C@H](C(=O)N[C@@H](CC(C)C)C(=O)NCC(=O)N[C@@H](CCCCN)C(=O)N[C@@H](CCCN=C(N)N)C(=O)N[C@@H](Cc1ccc(O)cc1)C(=O)N[C@@H](CCCCN)C(=O)N[C@@H](CCC(N)=O)C(=O)N[C@@H](CCCN=C(N)N)C(=O)N[C@H](C(=O)N[C@@H](CCCCN)C(=O)N[C@@H](CC(N)=O)C(=O)N[C@@H](CCCCN)C(N)=O)C(C)C)C(C)C)C(C)C)[C@@H](C)O` (stereo partly drawn) [PACAP(2-38)] (H-SDG[Ile(3ξ)]FTDSYSRYRKQMAVKKYLAAVLGKRYKQRVKNK-NH2), the Ki was 5 nM and 8 nM. On to `CCC(C)[C@H](NC(=O)CNC(=O)[C@@H](N)CC(=O)O)C(=O)N[C@@H](Cc1ccccc1)C(=O)N[C@H](C(=O)N[C@@H](CC(=O)O)C(=O)N[C@@H](CO)C(=O)N[C@@H](Cc1ccc(O)cc1)C(=O)N[C@@H](CO)C(=O)N[C@@H](CCCN=C(N)N)C(=O)N[C@@H](Cc1ccc(O)cc1)C(=O)N[C@@H](CCCN=C(N)N)C(=O)N[C@@H](CCCCN)C(=O)N[C@@H](CCC(N)=O)C(=O)N[C@@H](CCSC)C(=O)N[C@@H](C)C(=O)N[C@H](C(=O)N[C@@H](CCCCN)C(=O)N[C@@H](CCCCN)C(=O)N[C@@H](Cc1ccc(O)cc1)C(=O)N[C@@H](CC(C)C)C(=O)N[C@@H](C)C(=O)N[C@@H](C)C(=O)N[C@H](C(=O)N[C@@H](CC(C)C)C(N)=O)C(C)C)C(C)C)[C@@H](C)O` (stereo partly drawn) [PACAP(3-27)] (H-DG[Ile(3ξ)]FTDSYSRYRKQMAVKKYLAAVL-NH2), for which the Ki was 500 nM and 400 nM. The same measure for `CC[C@H](C)[C@H](NC(=O)[C@H](CO)NC(=O)[C@H](CC(N)=O)NC(=O)[C@H](CC(C)C)NC(=O)[C@H](Cc1ccc(O)cc1)NC(=O)[C@H](CCCCN)NC(=O)[C@H](CCCCN)NC(=O)[C@@H](NC(=O)[C@H](C)NC(=O)[C@H](CCSC)NC(=O)[C@H](CCC(N)=O)NC(=O)[C@H](CCCCN)NC(=O)[C@H](CCCN=C(N)N)NC(=O)[C@H](CC(C)C)NC(=O)[C@H](CCCN=C(N)N)NC(=O)[C@@H](NC(=O)[C@H](Cc1ccc(O)cc1)NC(=O)[C@H](CC(N)=O)NC(=O)[C@H](CC(=O)O)NC(=O)[C@@H](NC(=O)[C@H](Cc1ccccc1)NC(=O)[C@@H](NC(=O)[C@H](C)NC(=O)[C@H](CC(=O)O)NC(=O)[C@H](CO)NC(=O)[C@@H](N)Cc1cnc[nH]1)C(C)C)[C@@H](C)O)[C@@H](C)O)C(C)C)C(=O)N[C@@H](CC(C)C)C(=O)N[C@@H](CC(N)=O)C(=O)O` [CAS_37221-79-7]: 80 nM. In the case of `CCC(C)[C@H](NC(=O)CNC(=O)[C@@H](N)CC(=O)O)C(=O)N[C@@H](Cc1ccccc1)C(=O)N[C@H](C(=O)N[C@@H](CC(=O)O)C(=O)N[C@@H](CO)C(=O)N[C@@H](Cc1ccc(O)cc1)C(=O)N[C@@H](CO)C(=O)N[C@@H](CCCN=C(N)N)C(=O)N[C@@H](Cc1ccc(O)cc1)C(=O)N[C@@H](CCCN=C(N)N)C(=O)N[C@@H](CCCCN)C(=O)N[C@@H](CCC(N)=O)C(=O)N[C@@H](CCSC)C(=O)N[C@@H](C)C(=O)N[C@H](C(=O)N[C@@H](CCCCN)C(=O)N[C@@H](CCCCN)C(=O)N[C@@H](Cc1ccc(O)cc1)C(=O)N[C@@H](CC(C)C)C(=O)N[C@@H](C)C(=O)N[C@@H](C)C(=O)N[C@H](C(=O)N[C@@H](CC(C)C)C(=O)NCC(=O)N[C@@H](CCCCN)C(=O)N[C@@H](CCCN=C(N)N)C(=O)N[C@@H](Cc1ccc(O)cc1)C(=O)N[C@@H](CCCCN)C(=O)N[C@@H](CCC(N)=O)C(=O)N[C@@H](CCCN=C(N)N)C(=O)N[C@H](C(=O)N[C@@H](CCCCN)C(=O)N[C@@H](CC(N)=O)C(=O)N[C@@H](CCCCN)C(N)=O)C(C)C)C(C)C)C(C)C)[C@@H](C)O` (stereo partly drawn) [PACAP(3-38)] (H-DG[Ile(3ξ)]FTDSYSRYRKQMAVKKYLAAVLGKRYKQRVKNK-NH2), the inhibition constant Ki came to 300 nM. Compound `[C][C][C]([C])[C@H]([N]C(=O)[C][N]C(=O)[C@H]([C][C]C([O])=O)[N]C(=O)[C@@H]([N])[C][O])C(=O)[N][C@@H]([C]c1ccccc1)C(=O)[N][C@H](C(=O)[N][C@@H]([C]C([O])=O)C(=O)[N][C@@H]([C][O])C(=O)[N][C@@H]([C]c1ccc([O])cc1)C(=O)[N][C@@H]([C][O])C(=O)[N][C@@H]([C][C][C]N=C([N])[N])C(=O)[N][C@@H]([C]c1ccc([O])cc1)C(=O)[N][C@@H]([C][C][C]N=C([N])[N])C(=O)[N][C@@H]([C][C][C][C][N])C(=O)[N][C@@H]([C][C]C([N])=O)C(=O)[N][C@@H]([C][C]S[C])C(=O)[N][C@@H]([C])C(=O)[N][C@@H]([C]([C])[C])C(=O)[N][C@@H]([C][C][C][C][N])C(=O)[N][C@@H]([C][C][C][C][N])C(=O)[N][C@@H]([C]c1ccc([O])cc1)C(=O)[N][C@@H]([C][C]([C])[C])C(=O)[N][C@@H]([C])C(=O)[N][C@@H]([C])C(=O)[N][C@@H]([C]([C])[C])C(=O)[N][C@@H]([C][C]([C])[C])C([N])=O)[C@@H]([C])[O]` [PACAP(2-27)] registered a Ki of 5 nM.
